# Where two headings read alike, the source gives them in different places.
# What was measured:
# [1] = target: T1, full-length beta-Catenin (Uniprot ID P35222) (Homo sapiens, UniProt P35222); assay: Fluorescence polarization IC50 (beta-catenin / 5FAM-TCF4 10-53 competition); assay type: binding; details: fluorescence polarization
# T1 construct: 10 nM full-length beta-Catenin (Uniprot ID P35222)
# T1 sequence (P35222 1-781): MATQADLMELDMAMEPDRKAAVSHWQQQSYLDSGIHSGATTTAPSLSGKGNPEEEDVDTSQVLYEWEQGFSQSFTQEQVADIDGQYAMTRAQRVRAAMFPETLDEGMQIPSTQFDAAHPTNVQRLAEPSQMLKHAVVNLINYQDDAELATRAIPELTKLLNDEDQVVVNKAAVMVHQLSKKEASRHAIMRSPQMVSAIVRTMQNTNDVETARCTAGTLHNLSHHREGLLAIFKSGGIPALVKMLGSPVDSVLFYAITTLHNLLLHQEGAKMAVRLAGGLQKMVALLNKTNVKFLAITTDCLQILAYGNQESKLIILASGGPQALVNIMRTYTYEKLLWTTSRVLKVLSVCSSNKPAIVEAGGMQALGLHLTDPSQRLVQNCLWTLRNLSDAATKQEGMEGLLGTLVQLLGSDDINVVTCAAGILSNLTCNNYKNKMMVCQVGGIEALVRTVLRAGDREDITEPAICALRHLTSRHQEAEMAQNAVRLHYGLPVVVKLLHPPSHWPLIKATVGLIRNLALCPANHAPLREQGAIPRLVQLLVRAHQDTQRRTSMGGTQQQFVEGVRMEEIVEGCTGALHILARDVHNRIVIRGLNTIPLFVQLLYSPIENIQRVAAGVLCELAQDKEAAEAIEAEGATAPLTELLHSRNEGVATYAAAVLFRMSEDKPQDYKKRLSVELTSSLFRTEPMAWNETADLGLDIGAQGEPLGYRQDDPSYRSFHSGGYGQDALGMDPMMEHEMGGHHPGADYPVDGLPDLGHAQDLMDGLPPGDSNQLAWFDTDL
# [2] = target: T2, beta-catenin/TCF4 engagement (Homo sapiens, UniProt P35222); assay: Nano-BRET target engagement assay (B-cat-Halo & TCF4-Luc in HEK293 cells); assay type: cell-based
# T2 construct: expressed in transfected cells; host or cells: HEK293
# T2 sequence (P35222 1-781): T1 sequence (P35222 1-781)
SMILES,IC50 ([1]; read-out: beta-Catenin FP IC50) [nM],IC50 ([2]; read-out: NanoBRET Abs IC50) [µM],IC50 ([1]; beta-Catenin FP IC50 (nM)) [nM],IC50 ([2]; NanoBRET Abs IC50 (uM)) [µM]
"CC(=O)N1CCC[C@]12CC=CCCCC1(CCCC=CCCCOC(=O)N3CC[C@@](C(=O)N[C@@H](Cc4ccsc4)C(=O)N[C@@H](Cc4csc5ccccc45)C(=O)N[C@@H](Cc4ccccc4)C(N)=O)(C3)NC(=O)[C@H](CC(C)C)NC(=O)[C@H](Cc3ccccc3)NC(=O)[C@H](C)NC(=O)C(C)(C)NC(=O)[C@H](Cc3cccc(C(=O)O)c3)NC(=O)[C@H](CC(=O)O)NC1=O)NC(=O)[C@H](CC(C)(C)C)NC(=O)[C@H](CC(=O)O)NC2=O (stereo partly drawn) [I-1914, Ac-PL3-Asp-Npg-B5-Asp-3COOHF-Aib-Ala-Phe-Leu-PyrS2-3Thi-BztA-Phe-NH2]",52,6.4,–,–
"CC(=O)N1CCC[C@]12CC=CCCCC1(CCCC=CCCCOC(=O)N3CC[C@@](C(=O)N[C@@H](Cc4ccsc4)C(=O)N[C@@H](Cc4csc5ccccc45)C(=O)N[C@@H](C)C(N)=O)(C3)NC(=O)[C@H](CC(C)C)NC(=O)[C@H](Cc3ccccc3)NC(=O)[C@H](C)NC(=O)[C@H](CCCCNC(C)C)NC(=O)[C@H](Cc3cccc(C(=O)O)c3)NC(=O)[C@H](CC(=O)O)NC1=O)NC(=O)[C@H](CC(C)(C)C)NC(=O)[C@H](CC(=O)O)NC2=O (stereo partly drawn) [I-1915, Ac-PL3-Asp-Npg-B5-Asp-3COOHF-iPrLys-Ala-Phe-Leu-PyrS2-3Thi-BztA-Ala-NH2]",11,20.2,–,–
"CC(=O)N1CCC[C@]12CC=CCCCC1(CCCC=CCCCOC(=O)N3CC[C@@](C(=O)N[C@@H](Cc4ccsc4)C(=O)N[C@@H](Cc4csc5ccccc45)C(=O)N[C@@H](C)C(N)=O)(C3)NC(=O)[C@H](CC(C)C)NC(=O)[C@H](Cc3ccccc3)NC(=O)[C@H](C)NC(=O)[C@H](Cc3c[nH]cn3)NC(=O)[C@H](Cc3cccc(C(=O)O)c3)NC(=O)[C@H](CC(=O)O)NC1=O)NC(=O)[C@H](CC(C)(C)C)NC(=O)[C@H](CC(=O)O)NC2=O (stereo partly drawn) [I-1916, Ac-PL3-Asp-Npg-B5-Asp-3COOHF-His-Ala-Phe-Leu-PyrS2-3Thi-BztA-Ala-NH2]",8,9.2,–,–
"CC(=O)N1CCC[C@]12CC=CCCCC1(CCCC=CCCCOC(=O)N3CC[C@@](C(=O)N[C@@H](Cc4ccsc4)C(=O)N[C@@H](Cc4csc5ccccc45)C(=O)N[C@@H](C)C(N)=O)(C3)NC(=O)[C@H](CC(C)C)NC(=O)[C@H](Cc3ccccc3)NC(=O)[C@H](C)NC(=O)[C@H](CCCCN)NC(=O)[C@H](Cc3cccc(C(=O)O)c3)NC(=O)[C@H](CC(=O)O)NC1=O)NC(=O)[C@H](CC(C)(C)C)NC(=O)[C@H](CC(=O)O)NC2=O (stereo partly drawn) [I-1917, Ac-PL3-Asp-Npg-B5-Asp-3COOHF-Lys-Ala-Phe-Leu-PyrS2-3Thi-BztA-Ala-NH2]",13,37.7,–,–
"CCCC[C@@H]1NC(=O)[C@H](Cc2cccc(C(=O)O)c2)NC(=O)[C@H](CC(=O)O)NC(=O)C2(CCCC=CCCCOC(=O)N3CC[C@@](C(=O)N[C@@H](Cc4ccsc4)C(=O)N[C@@H](Cc4csc5ccccc45)C(=O)N[C@@H](C)C(N)=O)(C3)NC(=O)[C@H](CC(C)C)NC(=O)[C@H](Cc3ccccc3)NC(=O)[C@H](C)NC1=O)CCCC=CC[C@]1(CCCN1C(C)=O)C(=O)N[C@@H](CC(=O)O)C(=O)N[C@@H](CC(C)(C)C)C(=O)N2 (stereo partly drawn) [I-1919, Ac-PL3-Asp-Npg-B5-Asp-3COOHF-nLeu-Ala-Phe-Leu-PyrS2-3Thi-BztA-Ala-NH2]",33,4.7,–,–
"CC(=O)N1CCC[C@]12CC=CCCCC1(CCCC=CCCCOC(=O)N3CC[C@@](C(=O)N[C@@H](Cc4cccc(C(N)=O)c4)C(=O)N[C@@H](Cc4csc5ccccc45)C(=O)N[C@@H](CCO)C(N)=O)(C3)NC(=O)[C@H](CC(N)=O)NC(=O)[C@H](Cc3ccccc3)NC(=O)[C@H](C)NC(=O)[C@H](CCCCNC(C)C)NC(=O)[C@H](CCC(N)=O)NC(=O)[C@H](CC(=O)O)NC1=O)NC(=O)[C@H](CC1CCCCC1)NC(=O)[C@H](CC(N)=O)NC2=O (stereo partly drawn) [I-1929, Ac-PL3-Asn-Cha-B5-Asp-Gln-iPrLys-Ala-Phe-Asn-PyrS2-3cbmf-BztA-Hse-NH2]",74,> 20,–,–
"CC(=O)N1CCC[C@]12CC=CCCCC1(CCCC=CCCCOC(=O)N3CC[C@@](C(=O)N[C@@H](Cc4ccsc4)C(=O)N[C@@H](Cc4csc5ccccc45)C(=O)N[C@@H](CCC(N)=O)C(N)=O)(C3)NC(=O)[C@H](CCC(=O)N3CCN(CC(F)(F)F)CC3)NC(=O)[C@H](Cc3ccccc3)NC(=O)[C@H](C)NC(=O)[C@H](C)NC(=O)[C@H](CN(CC(=O)O)CC(F)(F)F)NC(=O)[C@H](CC(=O)O)NC1=O)NC(=O)[C@H](CC(C)(C)C)NC(=O)[C@H](CC(=O)O)NC2=O (stereo partly drawn) [I-1935, Ac-PL3-Asp-Npg-B5-Asp-TfeGA-Ala-Ala-Phe-[TfePpz]GlnR-PyrS2-3Thi-BztA-Gln-NH2]",9,7.1,–,–
"CC(=O)N1CCC[C@]12CC=CCCCC1(CCCC=CCCCOC(=O)N3CC[C@@](C(=O)N[C@@H](Cc4ccsc4)C(=O)N[C@@H](Cc4csc5ccccc45)C(=O)N[C@@H](CCC(N)=O)C(N)=O)(C3)NC(=O)[C@H](CCC(=O)N3CCN(CCCN(C)C)CC3)NC(=O)[C@H](Cc3ccccc3)NC(=O)[C@H](C)NC(=O)[C@H](C)NC(=O)[C@H](CN(CC(=O)O)CC(F)(F)F)NC(=O)[C@H](CC(=O)O)NC1=O)NC(=O)[C@H](CC(C)(C)C)NC(=O)[C@H](CC(=O)O)NC2=O (stereo partly drawn) [I-1936, Ac-PL3-Asp-Npg-B5-Asp-TfeGA-Ala-Ala-Phe-[Me2NPrPip]GlnR-PyrS2-3Thi-BztA-Gln-NH2]",10,15.7,–,–
"CC(=O)N1CCC[C@]12CC=CCCCC1(CCCC=CCCCOC(=O)N3CC[C@@](C(=O)N[C@@H](Cc4ccsc4)C(=O)N[C@@H](Cc4csc5ccccc45)C(=O)N[C@@H](CCC(N)=O)C(N)=O)(C3)NC(=O)[C@H](CCC(=O)N3CCN(c4ccncc4)CC3)NC(=O)[C@H](Cc3ccccc3)NC(=O)[C@H](C)NC(=O)[C@H](C)NC(=O)[C@H](CN(CC(=O)O)CC(F)(F)F)NC(=O)[C@H](CC(=O)O)NC1=O)NC(=O)[C@H](CC(C)(C)C)NC(=O)[C@H](CC(=O)O)NC2=O (stereo partly drawn) [I-1938, Ac-PL3-Asp-Npg-B5-Asp-TfeGA-Ala-Ala-Phe-[4PyPip]GlnR-PyrS2-3Thi-BztA-Gln-NH2]",–,–,8,30
"CC(=O)N1CCC[C@]12CC=CCCCC1(CCCC=CCCCOC(=O)N3CC[C@@](C(=O)N[C@@H](Cc4ccsc4)C(=O)N[C@@H](Cc4csc5ccccc45)C(=O)N[C@@H](CCC(N)=O)C(N)=O)(C3)NC(=O)[C@H](CCC(=O)N3CC[C@@H](N(C)C)C3)NC(=O)[C@H](Cc3ccccc3)NC(=O)[C@H](C)NC(=O)[C@H](C)NC(=O)[C@H](CN(CC(=O)O)CC(F)(F)F)NC(=O)[C@H](CC(=O)O)NC1=O)NC(=O)[C@H](CC(C)(C)C)NC(=O)[C@H](CC(=O)O)NC2=O (stereo partly drawn) [I-1939, Ac-PL3-Asp-Npg-B5-Asp-TfeGA-Ala-Ala-Phe-[RDMAPyr]GlnR-PyrS2-3Thi-BztA-Gln-NH2]",10,20.7,–,–
"CC(=O)N1CCC[C@]12CC=CCCCC1(CCCC=CCCCOC(=O)N3CC[C@@](C(=O)N[C@@H](Cc4ccsc4)C(=O)N[C@@H](Cc4csc5ccccc45)C(=O)N[C@@H](CCC(N)=O)C(N)=O)(C3)NC(=O)[C@H](CCC(=O)N3CCC(N4CCCCC4)CC3)NC(=O)[C@H](Cc3ccccc3)NC(=O)[C@H](C)NC(=O)[C@H](C)NC(=O)[C@H](CN(CC(=O)O)CC(F)(F)F)NC(=O)[C@H](CC(=O)O)NC1=O)NC(=O)[C@H](CC(C)(C)C)NC(=O)[C@H](CC(=O)O)NC2=O (stereo partly drawn) [I-1940, Ac-PL3-Asp-Npg-B5-Asp-TfeGA-Ala-Ala-Phe-[4Pippip]GlnR-PyrS2-3Thi-BztA-Gln-NH2]",6,15.4,–,–
